Laboratory results as given in US10947188B2, “Small molecule ferroptosis inducers” (THE TRUSTEES OF COLUMBIA UNIVERSITY IN THE CITY OF NEW YORK, priority 2016, dated 2021).
Each block holds one molecule with its values, some of them ahead of it.

How the values were obtained:
GPX4 = assay: Western blotting of GPX4 protein abundance; type: cell-based, human
Description: Seeded 300,000 cells (HT-1080 or BJeLR) per well in six-well plates. For cotreatment, ferroptosis inducers (10 μM erastin for 11 h, 0.5 μM (1S, 3R)-RSL3 for 2 h, or 5 μM FIN56) and 100 μM α-tocopherol were added to cell culture at the same time, and cells were then incubated for 10 h (FIG. 2E). When other death-modulating compounds (100 nM sodium selenite, 1 μM cerivastatin, 100 μg/mL mevalonic acid, 30 μM C75, or 2 μM cerulenin) were used in cotreatments, cells were pre-incubated with the modulators for 24 h before being treated with ferroptosis inducers for 6 h. Cell lysis, SDS-PAGE and protein transfer to PVDF membrane were performed as previously described (Dixon et al. 2012). We used the following antibodies: anti-human α-tubulin (Santa Cruz Biotechnology, sc-32293, 1:10,000 dilution), anti-human GPX4 (Abcam, ab41787, 1:2,000 dilution), anti-human GPX1 (R&D Systems, AF3798, 1:1,000 dilution), and anti-human SQS (Abcam, ab109723 for full-length, ab195046 for truncated, both at 1:1,000 dilution). Secondary antibodies were from LI-COR (1:3,000 dilution). The PVDF membranes labeled with primary and secondary antibodies were scanned using an Odyssey Imaging System (LI-COR). Experiments were performed in biological triplicates, and the mean±s.e. of intensity was plotted.

HT-1080 cells [1] = assay: Cell viability assay (Alamar Blue), lethal compounds with or without modulators; type: cell-based; details: HT-1080 cells
Description: 1,000 cells per 36 μl were seeded in each well in 384-well plates. Lethal compounds were dissolved, and a twofold, 12-point dilution series was prepared in DMSO. Compound solutions were further diluted with media at 1:25, and 4 μl per well of the diluted solutions was added to cell cultures immediately after cells were seeded. […] When other cell-death-modulating compounds (100 nM sodium selenite, 1 μM cerivastatin, 100 μg/mL mevalonic acid) were used in cotreatments, they were supplemented to cell culture for 24 h before lethal compounds were added to cell culture, after which cells were further incubated for 24 h at 37° C. under 5% CO2. On the day of the viability measurement, we added 10 μl per well of 50% Alamar Blue diluted in media (Life Technologies) and further incubated the cells at 37° C. for 6 h. Fluorescence intensity (excitation/emission: 530/590) was measured with a Victor 3 plate reader (PerkinElmer), and the normalized viability was calculated as VL=(IL−I0)/(IV−I0), where VL, I0, IV, and IL are the normalized viability and the raw fluorescence intensities from the wells containing media, cells treated with a vehicle (negative control), and cells with the lethal compound (L), respectively. When the effect of a chemical modulator (M) on L was calculated, we instead used the equation VL|M=(IM,L−I0)/(IM,V−I0), where VL|M, IM,L and IM,V are the normalized viability, and fluorescence intensity from cells treated with […], respectively. The viability was typically measured in biological triplicate unless otherwise specified. A representative dose-response curve, the mean and standard error of normalized viability from one replicate were plotted. […]

HT-1080 = assay: Modulatory profiling: Alamar Blue viability, lethal compound cotreated with death modulator (EC50, AUC); type: cell-based; parameters: AUC, modulator HT.3MA / AUC, modulator HT.ALLN / AUC HT.ATA / AUC HT.ActD / AUC HT.BHA / AUC HT.BHT / AUC HT.BocD / AUC HT.CHX / AUC HT.Co2+ / AUC HT.DPQ / AUC HT.EGTA / AUC HT.Lmim / AUC HT.NAD+ / AUC HT.Nec-1 / AUC HT.SP600125 / AUC HT.TLCK / AUC HT.U0126: unit not given beside the values
BJeLR = assay: as above; type: cell-based, human; parameters: AUC, modulator BJ.Gd3+ / AUC, modulator BJ.LNAME / AUC, modulator BJ.Lmin / AUC, modulator BJ.3MA / AUC, modulator BJ.ALLN / AUC, modulator BJ.Boc D / AUC, modulator BJ.CHX / AUC, modulator BJ.Co2+ / AUC, modulator BJ.Nec-1 / AUC, modulator BJ.Pepstatin / AUC, modulator BJ.TLCK / AUC, modulator BJ.atoc / AUC, modulator BJ.trolox / AUC, modulator BJ.zVAD: unit not given beside the values; details: BJeLR cells, modulatory profile value (AUC)
[2] = Cobalt (II) binding assay in vitro (absorbance spectrum); details: absorbance 300-700 nm
Description: For each cluster I compound (CIL13, −52, and −64), prepared two-fold dilution series with DMSO. We added 30 μL per well of either water or 10 μM cobalt (II) chloride solution to each well of a 384-well plate. Dilution series of each compound in DMSO were added by 10 μL per well. After solutions had been mixed by shaking of the plate using a Victor 3 plate reader (PerkinElmer), absorbance was scanned between 300 and 700 nm for each compound. Finally the following Absorbance value for each compound was plotted (see FIG. 9B):
[formula] where Abs is the absorbance at each wavelength. Search of Commercially Available Structural Analogs of CIL41/70.

HT-1080 cells [3] = assay: Analysis of lipid ROS generation (C11-BODIPY 581/591 flow cytometry); type: cell-based
Description: Cells were treated with test compounds, trypsinized, pelleted, and washed once with PBS. For lipophilic or aqueous ROS detection, cells were re-suspended in Hanks' Balanced Salt Solution (HBSS; […] Cells were then pelleted, re-suspended in 500 μL HBSS, strained through a 40-μm cell strainer (BD Falcon), and analyzed using a BD Accuri C6 flow cytometer (BD Biosciences). Both dyes were measured in the FL1 channel. Experiments were done in biological triplicates.

SMILES: COC(=O)c1ccc([C@H]2c3[nH]c4ccccc4c3C[C@H](C(=O)OC)N2C(=O)CCl)cc1 [(1S, 3R)-RSL3]
abundance of GPX4 protein (GPX4; BJeLR, cotreatment with 100 μM α-tocopherol, 10 h, FIN56 5 μM): Neither erastin nor (1S, 3R)-RSL3 affected the abundance of GPX4 to the same extent as FIN56
suppression of lethality by mevalonate-pathway modulators (FPP, YM-53601, idebenone) and α-tocopherol (HT-1080 cells [1]; modulatory profiling scheme): potently suppressed by all the compounds

binding to cobalt (II) in vitro [2]: bound to cobalt (II) in vitro
SMILES: C(=N\Nc1nc2ccccc2s1)/c1ccccn1 [CIL52]
AUC HT.ATA (HT-1080; HT-1080, modulator ATA): 0.03417
AUC HT.ActD (HT-1080; HT-1080, modulator ActD): 0.07379
AUC HT.BHA (HT-1080; HT-1080, modulator BHA): −0.01302
AUC HT.BHT (HT-1080; HT-1080, modulator BHT): −0.06719
AUC HT.BocD (HT-1080; HT-1080, modulator BocD): 0.008582
AUC HT.CHX (HT-1080; HT-1080, modulator CHX): 0.1474
AUC HT.Co2+ (HT-1080; HT-1080, modulator Co2+): 0.4155
AUC HT.CspA (HT-1080; HT-1080, modulator CspA): 0.05641
AUC HT.DPQ (HT-1080; HT-1080, modulator DPQ): −0.0133
AUC HT.EGTA (HT-1080; HT-1080, modulator EGTA): 0.09078
AUC HT.Gd3+ (HT-1080; HT-1080, modulator Gd3+): −0.006922
AUC HT.LNAME (HT-1080; HT-1080, modulator LNAME): −0.009412
AUC HT.Lmim (HT-1080; HT-1080, modulator Lmim): 0.02654
AUC HT.NAD+ (HT-1080; HT-1080, modulator NAD+): 0.01945
AUC HT.NMMA (HT-1080; HT-1080, modulator NMMA): −0.01196
HT.atoc (AUC) (HT-1080; HT-1080, modulator atoc): 0.07146
HT.bCarotene (AUC) (HT-1080; HT-1080, modulator bCarotene): 0.06784
HT.deferox (AUC) (HT-1080; HT-1080, modulator deferox): 0.2325
HT.digoxin (AUC) (HT-1080; HT-1080, modulator digoxin): −0.005506
HT.trolox (AUC) (HT-1080; HT-1080, modulator trolox): −0.03942
HT.zVAD (AUC) (HT-1080; HT-1080, modulator zVAD): 0.02339
effect of cobalt (II) on lethality (HT-1080; modulatory profiles, CoCl2 supplementation): inhibited by cobalt (II)
AUC, modulator BJ.3MA (BJeLR; lethal compound cotreated with modulator 3MA): 0.0119
AUC, modulator BJ.ALLN (BJeLR; lethal compound cotreated with modulator ALLN): 0.01092
AUC, modulator BJ.Boc D (BJeLR; lethal compound cotreated with modulator Boc D): 0.0184
AUC, modulator BJ.CHX (BJeLR; lethal compound cotreated with modulator CHX): 0.03724
AUC, modulator BJ.Co2+ (BJeLR; lethal compound cotreated with modulator Co2+): 0.7978
AUC, modulator BJ.DPQ (BJeLR; lethal compound cotreated with modulator DPQ): 0.03648
AUC, modulator BJ.Gd3+ (BJeLR; lethal compound cotreated with modulator Gd3+): 0.08327
AUC, modulator BJ.LNAME (BJeLR; lethal compound cotreated with modulator LNAME): −0.01578
AUC, modulator BJ.Lmin/NAD+ (BJeLR; lethal compound cotreated with modulator Lmin/NAD+): 0.08265
AUC, modulator BJ.Lmin (BJeLR; lethal compound cotreated with modulator Lmin): 0.007783
AUC, modulator BJ.NAD+ (BJeLR; lethal compound cotreated with modulator NAD+): 0.09321
AUC, modulator BJ.NMMA (BJeLR; lethal compound cotreated with modulator NMMA): −0.006118
AUC, modulator BJ.Nec-1 (BJeLR; lethal compound cotreated with modulator Nec-1): 0.03888
AUC, modulator BJ.Pepstatin (BJeLR; lethal compound cotreated with modulator Pepstatin): 0.02196
AUC, modulator BJ.TLCK (BJeLR; lethal compound cotreated with modulator TLCK): 0.284

SMILES: CCCCCCCCCCCCCCOc1ccc(C(=O)O)o1 [TOFA]
effect on FIN56-induced decrease of GPX4 protein abundance (GPX4; 5 μM FIN56): inhibited the loss of GPX4
effect on lipid ROS generation after FIN56 treatment (HT-1080 cells [3]): suppressed lipid ROS generation after FIN56 treatment
effect on FIN56 lethality (HT-1080 cells [1]; modulator cotreatment or pretreatment): potent suppressor of FIN56
